{
  "source": "paper PMC5365662",
  "about": "“A Short Double-Stapled Peptide Inhibits Respiratory Syncytial Virus Entry and Spreading” (Antimicrobial Agents and Chemotherapy, 2017)",
  "key": {"[1]": {"assay": "Proteolytic stability assay, chymotrypsin", "type": "in vitro ADME", "conditions": "chymotrypsin (isolated protease); 10 μl peptide 0.29 mM in 990 μl 100 mM Tris-HCl pH 8.0, 10 mM CaCl2; 10 μl chymotrypsin 50 μg/ml; 25°C; LC-MS of intact peptide, exponential decay fit; 3 experiments", "procedure": "(§1) This is an important parameter to assess for the development of peptide therapeutics. Peptides 4bb, 4ca, and 4a, and the unstapled analog peptide 4, as well as both SAH-RSVFBD isomers, were treated with chymotrypsin or trypsin, and the samples were analyzed by LC/MS to quantify the reaction products over time. […] In comparison, both SAH-RSVFBD isomers were more susceptible to proteolytic degradation, with half-lives of approximately 7 h and 5 min against chymotrypsin and trypsin, respectively.\n(§2) In vitro proteolytic degradation was measured via LC-MS using an Agilent Infinity 1280 UHPLC system coupled to an Agilent quadrupole time of flight (QTOF) 6530 instrument with an Agilent Jet Stream electrospray ionization (AJS ESI) source (all from Agilent Technologies, Waldbronn, Germany). Five microliters of digested sample was injected onto a C18 column (Zorbax Eclipse Plus RRHD, 1.8 μm, 2.1 by 100 mm; Agilent Technologies, Waldbronn, Germany) equilibrated with solvent A (5% acetonitrile, 0.2% formic acid) and eluted with a flow rate of 0.4 ml/min over a 5 to 95% gradient of solvent B (95% acetonitrile, 0.2% formic acid) in 5 min, followed by 1.5 min at 95% and 0.5 min posttime. The AJS ESI source was operated with a capillary voltage of 4,000 V and a nozzle voltage of 600 V with a drying gas temperature of 325°C and flow rate of 10 liters/min, nebulizing gas pressure of 20 lb/in^2, and a sheath gas temperature of 300°C and flow rate of 11 liters/min. Mass spectra were acquired in the positive-ion mode from 100 to 3,200 m/z at a rate of 1 scan per second in extended dynamic range (2 GHz) mode. The fragmentor, skimmer, and octopole RF voltages were set to 200, 60, and 750 V, respectively. Data were acquired and analyzed with the Agilent MassHunter Workstation (version B.05).\n(§3) Peptide digestion was performed as follows: 10 μl of peptide at 0.29 mM in 50:50 acetonitrile-water was dissolved in 990 μl 100 mM Tris-HCl (pH 8.0) with 10 mM CaCl2. Following measurement of the undigested (t0) sample, 10 μl of chymotrypsin at 50 μg/ml in 100 mM Tris-HCl (pH 8.0) with 10 mM CaCl2 was added, and the sample was vortexed and placed immediately in the autosampler, set to 25°C. The level of intact peptide was quantified by serial injection over time. Integration of the intact peptide compound chromatogram was performed using the Agilent Molecular Feature Extraction (MFE) algorithm. The value of the fit at t = 0 min was used to calculate the percentage of the intact peptide at each point as follows: Percent intact (t) = [Vol (t)/Volt0] × 100, where Vol is the total volume calculated using Find Compounds by Molecular Feature and Volt0 is the value of the fit at time t = 0. A plot of the intact peptide MFE peak area over time gave an exponential decay curve, from which the half-life was determined using MatLab […]."}, "[2]": {"system": "recombinant GFP-expressing RSV (strain A2) in A549 cells", "type": "cell-based, human respiratory syncytial virus", "conditions": "cellular RSV-eGFP assay, data not shown", "procedure": "A549 cells were infected with a recombinant green fluorescent protein (GFP)-expressing RSV (strain A2) ([23]), and the inhibitory activity of the peptide was quantified by flow cytometry.\nEach peptide was diluted 3 times by 2-fold serial dilutions. eGFP RSV virus at an MOI of 0.5 was used for the infection, and GFP-positive cells were counted by FACS analysis 24 h p.i. The GFP data were normalized to the fluorescence values observed with virus only and plotted as percent inhibition.\nSerial 4-fold dilutions of inhibitors were mixed with eGFP-encoding RSV virus ([23]) with a volume of virus required to achieve approximately 50% of infection in medium containing 2% fetal calf serum. The resulting mixture was added to 24-well plates containing A549 cells. Cells were incubated for 2 h at 37°C, the medium was replaced, and cells were incubated for an additional 24 h. Cells were treated with 300 μl of trypsin for 10 min at 37°C, and the detached cells were diluted in 1 ml of culture medium. Following centrifugation at 1,700 rpm, the pellet was resuspended in 300 μl of PBS–1% fetal bovine serum (FBS) (vol/vol) and GFP-positive cells were counted by fluorescence-activated cell sorter (FACS) analysis. The GFP data were normalized to the fluorescence value observed with virus only. The resulting inhibition curves were fitted in Igor Pro as described above."}, "[3]": {"assay": "Proteolytic stability assay, trypsin", "type": "in vitro ADME", "conditions": "trypsin (isolated protease); 100 mM Tris-HCl pH 8.0, 10 mM CaCl2, 25°C; LC-MS of intact peptide, exponential decay fit; 3 experiments", "procedure": "as §1, §2\nas §3, with “Integration of the intact peptide compound chromatogram was performed using the Agilent Molecular Feature Extraction (MFE) algorithm.” left out"}, "[4]": {"assay": "Far-UV circular dichroism, α-helical content", "type": "physicochemical", "conditions": "CD, 10 mM phosphate buffer pH 7.5, 50 μM peptide, 25°C", "procedure": "The circular dichroism spectra were acquired on a Chirascan spectropolarimeter. The samples were prepared in 10 mM phosphate buffer, pH 7.5, at a peptide concentration of 50 μM. Data were recorded at 25°C by step scan from 180 nm to 260 nm in a 0.5-mm path length quartz cell using 1-nm wavelength increments and a response time of 1 s. The data were converted to per residue molar ellipticity units [θ] (degree per square centimeter per decimole per residue) and smoothed using the Igor Pro software. The percentage of helicity was calculated as described previously ([35])."}, "RSV": {"system": "RSV", "conditions": "cited from earlier work", "description": "The RSV fusion glycoprotein (F) is the focus of active research in the field of vaccines, neutralizing antibodies, and small molecules. […] RSV F is a type I fusion protein that is activated into a metastable prefusion state upon cleavage by host proteases. The prefusion state contains a hydrophobic fusion peptide, ..."}, "[5]": {"system": "rHRSV-mCherry in HEp-2 cells", "assay": "rHRSV-mCherry inhibition assay", "type": "cell-based, human respiratory syncytial virus", "conditions": "HEp-2 cells", "outline": "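HEp-2 cells infected at MOI 0.2 with rHRSV-mCherry preincubated 15–20 min with serially diluted peptide, peptide kept in 2% FBS medium for 48 h at 37°C. Replication read as mCherry fluorescence (ex 580/em 620 nm), normalized to untreated infected cells; duplicates, curves fitted.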"}, "chymotrypsin": {"system": "chymotrypsin", "assay": "Proteolytic stability assay, chymotrypsin", "type": "in vitro ADME", "conditions": "treated with chymotrypsin or trypsin, LC/MS", "procedure": "as §1, §2, §3"}, "[6]": {"conditions": "all solvents tested"}, "[7]": {"conditions": "RSV-Cherry MOI 0.2, peptide and virus removed after infection and fresh peptide added, mCherry fluorescence 48 h p.i., at least twice in duplicate"}},
  "note": "Bridge positions count the residues as written; N and C are the ends. Square brackets hold non-standard residues; d marks the D form. Peptide text beside a SMILES is read from it. S5 = C=CCCC[C@](C)(N)C(=O)O",
  "data": [
    {"smiles": "CC[C@H](C)[C@H](NC(=O)[C@H](CCCCN)NC(=O)[C@H](CCC(=O)O)NC(C)=O)C(=O)N[C@@H](CC(N)=O)C(=O)N[C@@H](CCC(N)=O)C(=O)N[C@@H](CO)C(=O)N[C@@H](CC(C)C)C(=O)N[C@@]1(C)CCCC=CCCC[C@@](C)(C(=O)N[C@@H](CO)C(=O)N[C@@H](CC(=O)O)C(=O)N[C@@]2(C)CCCC=CCCC[C@@](C)(C(=O)N[C@H](C(N)=O)C(C)C)NC(=O)[C@H](Cc3c[nH]cn3)NC(=O)[C@H](CC(C)C)NC(=O)[C@H](CC(C)C)NC2=O)NC(=O)[C@H](CCCNC(=N)N)NC(=O)[C@H]([C@@H](C)CC)NC(=O)[C@H](Cc2ccccc2)NC1=O", "note": "[Peptide 4a] (Ac-EKINQSL[S5]FIR[S5]SD[S5]LLH[S5]V-NH2; staple 8-12, 15-19)", "values": [
      {"measurement": "half-life at 2.9 µM", "setting": "[1]", "result": 74.7, "unit": "h"},
      {"measurement": "potency relative to hit peptide 3ac", "setting": "[2]", "result": "twice more potent"},
      {"measurement": "half-life", "setting": "[3]", "result": 78, "unit": "min"},
      {"measurement": "% Helicity", "setting": "[4]; Table 2", "result": 23.5, "unit": "%"},
      {"measurement": "% Helicity", "setting": "[4]; Table 3 (Ala scan)", "result": 64, "unit": "%"}
    ]},
    {"smiles": "Cc1cn2nc([C@@H]3CCCCN3C(=O)c3cc(Cl)ccc3NS(C)(=O)=O)cc2nc1N1CC[C@H](N)C1", "note": "[GS-5806]", "values": [
      {"measurement": "EC50", "setting": "RSV", "result": 0.4, "unit": "nM"}
    ]},
    {"smiles": "CC[C@H](C)[C@H](NC(=O)[C@H](CCCCN)NC(=O)[C@H](CCC(=O)O)NC(C)=O)C(=O)N[C@@]1(C)CCCC=CCCC[C@@](C)(C(=O)N[C@@H](Cc2ccccc2)C(=O)N[C@H](C(=O)N[C@@]2(C)CCCC=CCCC[C@@](C)(C(=O)N[C@@H](CC(C)C)C(=O)N[C@@H](CC(C)C)C(=O)N[C@@H](Cc3c[nH]cn3)C(=O)N[C@@H](CC(N)=O)C(=O)N[C@H](C(N)=O)C(C)C)NC(=O)[C@H](CC(=O)O)NC(=O)[C@H](CO)NC(=O)[C@H](CCCCN)NC2=O)[C@@H](C)CC)NC(=O)[C@H](CC(C)C)NC(=O)[C@H](CO)NC(=O)[C@H](CCC(N)=O)NC1=O", "note": "[Peptide 4bb] (Ac-EKI[S5]QSL[S5]FI[S5]KSD[S5]LLHNV-NH2; staple 4-8, 11-15)", "values": [
      {"measurement": "half-life at 2.9 µM", "setting": "[1]", "result": 50.1, "unit": "h"},
      {"measurement": "half-life", "setting": "[3]", "result": 18, "unit": "min"},
      {"measurement": "EC50", "setting": "[5]; [7]", "result": "740 ± 270", "unit": "nM"},
      {"measurement": "EC50", "setting": "[5]; Table 3 (Ala scan), rHRSV-mCherry MOI 0.2, 2-fold serial dilutions (11 dilutions), duplicate, ± SD of fit", "result": "670 ± 70", "unit": "nM"},
      {"measurement": "% Helicity", "setting": "[4]; Table 2", "result": 48.1, "unit": "%"},
      {"measurement": "% Helicity", "setting": "[4]; Table 3 (Ala scan)", "result": 53, "unit": "%"}
    ]},
    {"smiles": "CC[C@H](C)[C@H](NC(=O)[C@H](Cc1ccccc1)NC(=O)[C@H](C)NC(=O)[C@H](CC(C)C)NC(=O)[C@H](CO)NC(=O)[C@H](CCC(N)=O)NC(=O)[C@H](CC(N)=O)NC(=O)[C@@H](NC(=O)[C@H](CCCCN)NC(=O)[C@H](CCC(=O)O)NC(C)=O)[C@@H](C)CC)C(=O)N[C@@H](CCCNC(=N)N)C(=O)N[C@@H](CCCCN)C(=O)N[C@@H](CO)C(=O)N[C@@H](CC(=O)O)C(=O)N[C@@H](CCC(=O)O)C(=O)N[C@@H](CC(C)C)C(=O)N[C@@H](CC(C)C)C(=O)N[C@@H](Cc1c[nH]cn1)C(=O)N[C@@H](CC(N)=O)C(=O)N[C@H](C(N)=O)C(C)C", "note": "[Peptide 4] (Ac-EKINQSLAFIRKSDELLHNV-NH2)", "values": [
      {"measurement": "time to full degradation", "setting": "chymotrypsin", "result": "≤ 10", "unit": "min"},
      {"measurement": "half-life at 2.9 µM", "setting": "[1]", "result": 0.08, "unit": "h"},
      {"measurement": "half-life", "setting": "[3]", "result": 4.8, "unit": "min"},
      {"measurement": "EC50", "setting": "[5]; [7]", "result": "> 50000", "unit": "nM"}
    ]},
    {"smiles": "CC[C@H](C)[C@H](NC(=O)[C@H](Cc1ccccc1)NC(=O)[C@H](C)NC(=O)[C@H](CC(C)C)NC(=O)[C@H](CO)NC(=O)[C@H](CCC(N)=O)NC(=O)[C@H](CC(N)=O)NC(=O)[C@@H](NC(=O)[C@H](CCCCN)NC(=O)[C@H](CCC(=O)O)NC(=O)[C@H](CC(N)=O)NC(=O)[C@@H](NC(=O)[C@H](CCC(N)=O)NC(=O)[C@H](CO)NC(=O)[C@@H](NC(=O)[C@H](CCC(=O)O)NC(C)=O)[C@@H](C)CC)C(C)C)[C@@H](C)CC)C(=O)N[C@@H](CCCNC(=N)N)C(N)=O", "note": "[Peptide 2] (Ac-EISQVNEKINQSLAFIR-NH2)", "values": [
      {"measurement": "solubility", "setting": "[6]", "result": "insoluble in all solvents tested"}
    ]}
  ]
}
